Assay [1] has as its system vancomycin-resistant enterococci. The assay is described as follows: broth micro-dilution, mean geometric MIC. Format: cell-based, Enterococcus faecium and Enterococcus faecalis. As to conditions: enterococci, 24-hour incubation. For orientation: Broth dilution looks for growth in wells or tubes with falling amounts of substance.
For assay [2], the system named is Entercoccus faecium 180-1. The assay is described as follows: broth micro-dilution MIC. Format: cell-based. As to the method: (§1) The MIC's were determined using a standard broth micro-dilution assay.
Assay [3] deals with Staphylococcus aureus SA1199A. The assay is described as follows: broth micro-dilution MIC. The assay is classed as cell-based. The protocol:
as §1

Assay [4] deals with Streptococcus pyogenes C203. The assay is described as follows: broth micro-dilution MIC. Format: cell-based. The protocol:
as §1

Assay [5] has as its system Staphylococcus aureus 491. The assay is described as follows: broth micro-dilution MIC. Format: cell-based. The protocol:
as §1

The test system of assay [6] is Staphylococcus aureus 489. The assay is described as follows: broth micro-dilution MIC. The assay is classed as cell-based. As to the method: as §1
Assay [7] deals with Staphylococcus aureus X778. The assay is described as follows: broth micro-dilution MIC. Format: cell-based. The protocol: as §1
For another assay, the system named is Entercoccus faecium 276. As to the kind of experiment: broth micro-dilution MIC. The assay is classed as cell-based. The protocol:
as §1

For assay [8], the system named is Staphylococcus aureus 446. The assay is described as follows: broth micro-dilution MIC. Format: cell-based. The protocol: as §1
Assay [9] relates to Staphylococcus aureus SA1199. As to the kind of experiment: broth micro-dilution MIC. Format: cell-based. As to the method: as §1
Assay [10] concerns Staphylococcus aureus X400. As to the kind of experiment: broth micro-dilution MIC. Format: cell-based. As to the method: as §1
Assay [11] has as its system Staphylococcus aureus 447. The assay is described as follows: broth micro-dilution MIC. Format: cell-based. The protocol: as §1
For the next assay, the system named is Entercoccus faecium 2041. The assay is described as follows: broth micro-dilution MIC. Format: cell-based. As to conditions: Entercoccus faecium 2041. As to the method:
(§2) The formula I compounds have in vitro and in vivo activity against Gram-positive pathogenic bacteria. The MIC's were determined using a standard broth micro-dilution assay.

Assay [12] concerns Staphylococcus haemolyticus 105. The assay is described as follows: broth micro-dilution MIC. Format: cell-based. The protocol:
as §2

A further assay concerns Escherichia coli EC14. The assay is described as follows: broth micro-dilution MIC. The assay is classed as cell-based. As to the method:
as §2

For assay [13], the system named is Staphylococcus haemolyticus 415. The assay is described as follows: broth micro-dilution MIC. Format: cell-based. As to the method:
as §2

The subject of assay [14] is Enterococcus gallinarum 245. The assay is described as follows: broth micro-dilution MIC. Format: cell-based. Particulars: Enterococcus gallinarum 245. As to the method: as §2
The test system of assay [15] is Staphylococcus epidermidis 270. The assay is described as follows: broth micro-dilution MIC. Format: cell-based. The protocol: as §2
Assay [16] has as its system Haemophilus influenzae RD. As to the kind of experiment: broth micro-dilution MIC. The assay is classed as cell-based. Particulars: Haemophilus influenzae RD. The protocol:
as §2

The next assay deals with Entercoccus faecium 180. As to the kind of experiment: broth micro-dilution MIC. Format: cell-based. As to conditions: Entercoccus faecium 180. As to the method:
as §2

Assay [17] deals with Streptococcus pneumoniae P1. As to the kind of experiment: broth micro-dilution MIC. The assay is classed as cell-based. The protocol:
as §2

Assay [18] has as its system vancomycin-susceptible enterococci. As to the kind of experiment: broth micro-dilution, mean geometric MIC. The assay is classed as cell-based, Enterococcus faecium and Enterococcus faecalis. Particulars: enterococci, 24-hour incubation.
The test system of assay [19] is Staphylococcus aureus SA1199B. The assay is classed as cell-based. The protocol:
as §1

In assay [20] the test system is Staphylococcus aureus S13E. Format: cell-based. As to the method: as §1

SMILES strings stand for the structures. In brackets after ≈: the same amount, converted by molar mass.

Regarding `CNC(CC(C)C)C(=O)NC1C(=O)NC(CC(N)=O)C(=O)NC2C(=O)NC3C(=O)NC(C(=O)NC(C(=O)O)c4cc(O)cc(O)c4-c4cc3ccc4O)C(OC3CC(C)(NCc4ccc(SC)cc4)C(O)C(C)O3)c3ccc(c(Cl)c3)Oc3cc2cc(c3OC2OC(CO)C(O)C(O)C2OC2CC(C)(NCc3ccc(SC)cc3)C(O)C(C)O2)Oc2ccc(cc2Cl)C1O` (stereo not drawn) [Compound 278], the “mean geometric MIC, Vancomycin Resistant Strains” value in assay [1] is 8 µg/mL. Moreover, the MIC in [2] was ≤ 0.06 µg/mL; in assay [3], 1 µg/mL (≈ 0.536 µM); in assay [4] it was ≤ 0.06 µg/mL; in assay [5], 1 µg/mL (≈ 0.536 µM); in assay [6], 0.5 µg/mL (≈ 0.268 µM); in assay [7], 0.5 µg/mL (≈ 0.268 µM). For the same molecule, the MIC was found to be 0.25 µg/mL (≈ 0.134 µM) in the assay with Entercoccus faecium 276; 1 µg/mL (≈ 0.536 µM) in assay [8]; 0.25 µg/mL (≈ 0.134 µM) in assay [9]; 0.25 µg/mL (≈ 0.134 µM) in assay [10]; 2 µg/mL (≈ 1.07 µM) in assay [11]; 0.125 µg/mL (≈ 0.067 µM) against Entercoccus faecium 2041. Moreover, the MIC in [12] is 0.5 µg/mL (≈ 0.268 µM); in the assay on Escherichia coli EC14 it was > 64 µg/mL; in assay [13] it was 2 µg/mL (≈ 1.07 µM); in [14], 2 µg/mL (≈ 1.07 µM); in assay [15] it was 1 µg/mL (≈ 0.536 µM); in assay [16], > 64 µg/mL. Further, the MIC was 1 µg/mL (≈ 0.536 µM) against Entercoccus faecium 180, ≤ 0.06 µg/mL in assay [17], 0.5 µg/mL (≈ 0.268 µM) in assay [19] and 1 µg/mL (≈ 0.536 µM) in [20]. Besides, in [18], the “mean geometric MIC, Vancomycin Sensitive Strains” value is 0.29 µg/mL.

Turning to `CC(C)CC(C(=O)NC1C(=O)NC(CC(N)=O)C(=O)NC2C(=O)NC3C(=O)NC(C(=O)NC(C(=O)O)c4cc(O)cc(O)c4-c4cc3ccc4O)C(OC3CC(C)(N)C(O)C(C)O3)c3ccc(c(Cl)c3)Oc3cc2cc(c3OC2OC(CO)C(O)C(O)C2OC2CC(C)(NCc3c4c(cc5ccccc35)CCCC4)C(O)C(C)O2)Oc2ccc(cc2Cl)C1O)N(C)Cc1c2c(cc3ccccc13)CCCC2` (stereo not drawn) [Compound 262], in assay [1], the “mean geometric MIC, Vancomycin Resistant Strains” value turned out to be 5.7 µg/mL. For the same molecule, the MIC in assay [2] was ≤ 0.06 µg/mL; in [3] it was ≤ 0.06 µg/mL; in assay [4], ≤ 0.06 µg/mL; in assay [5], 1 µg/mL (≈ 0.505 µM); in [6] it was 1 µg/mL (≈ 0.505 µM); in assay [7] it was 1 µg/mL (≈ 0.505 µM). In addition, the MIC with Entercoccus faecium 276 came to 2 µg/mL (≈ 1.01 µM); in assay [8], 2 µg/mL (≈ 1.01 µM); in assay [9], 0.5 µg/mL (≈ 0.252 µM); in [10], 2 µg/mL (≈ 1.01 µM); in [11], 1 µg/mL (≈ 0.505 µM); against Entercoccus faecium 2041 it was 0.5 µg/mL (≈ 0.252 µM). The MIC in assay [12] is 4 µg/mL (≈ 2.02 µM); with Escherichia coli EC14, > 64 µg/mL; in [13], 2 µg/mL (≈ 1.01 µM); in [14], 2 µg/mL (≈ 1.01 µM); in assay [15] it was 1 µg/mL (≈ 0.505 µM); in assay [16], > 64 µg/mL. Moreover, the MIC against Entercoccus faecium 180 was 1 µg/mL (≈ 0.505 µM); in assay [17], ≤ 0.06 µg/mL; in [19] it was 0.5 µg/mL (≈ 0.252 µM); in assay [20] it was 1 µg/mL (≈ 0.505 µM). Moreover, in [18], the “mean geometric MIC, Vancomycin Sensitive Strains” value worked out at 0.17 µg/mL.

Take `CC(C)CC(C(=O)NC1C(=O)NC(CC(N)=O)C(=O)NC2C(=O)NC3C(=O)NC(C(=O)NC(C(=O)O)c4cc(O)cc(O)c4-c4cc3ccc4O)C(OC3CC(C)(NCc4ccc(-c5ccccc5)cc4)C(O)C(C)O3)c3ccc(c(Cl)c3)Oc3cc2cc(c3OC2OC(CO)C(O)C(O)C2OC2CC(C)(NCc3ccc(-c4ccccc4)cc3)C(O)C(C)O2)Oc2ccc(cc2Cl)C1O)N(C)Cc1ccc(-c2ccccc2)cc1` (stereo not drawn) [Compound 249]: the “mean geometric MIC, Vancomycin Resistant Strains” value in assay [1] was 11 µg/mL. Moreover, the MIC in assay [2] was 4 µg/mL (≈ 1.91 µM); in assay [3], 8 µg/mL (≈ 3.83 µM); in [4], 0.5 µg/mL (≈ 0.239 µM); in [5], 32 µg/mL (≈ 15.3 µM); in [6], > 64 µg/mL; in assay [7] it was > 64 µg/mL. Moreover, the MIC against Entercoccus faecium 276 is > 64 µg/mL; in [8], 64 µg/mL (≈ 30.6 µM); in assay [9], > 64 µg/mL; in [10] it was > 64 µg/mL; in assay [11] it was > 64 µg/mL; in the assay on Entercoccus faecium 2041, > 64 µg/mL. Moreover, the MIC in assay [12] was > 64 µg/mL; in the assay with Escherichia coli EC14, > 64 µg/mL; in [13], > 64 µg/mL; in assay [14] it was > 64 µg/mL; in [15], 32 µg/mL (≈ 15.3 µM); in [16] it was > 64 µg/mL. The MIC in the assay on Entercoccus faecium 180 is 16 µg/mL (≈ 7.65 µM); in [17] it was 1 µg/mL (≈ 0.478 µM); in [19], > 64 µg/mL; in [20], > 64 µg/mL. Also, the “mean geometric MIC, Vancomycin Sensitive Strains” value in [18] amounted to 3.5 µg/mL.

On to `CC(C)CC(C(=O)NC1C(=O)NC(CC(N)=O)C(=O)NC2C(=O)NC3C(=O)NC(C(=O)NC(C(=O)O)c4cc(O)cc(O)c4-c4cc3ccc4O)C(OC3CC(C)(N)C(O)C(C)O3)c3ccc(c(Cl)c3)Oc3cc2cc(c3OC2OC(CO)C(O)C(O)C2OC2CC(C)(NCc3ccc(-c4ccc(Cl)cc4)cc3)C(O)C(C)O2)Oc2ccc(cc2Cl)C1O)N(C)Cc1ccc(-c2ccc(Cl)cc2)cc1.O=C(O)C(F)(F)F` (stereo not drawn) [Compound 253], for which the “mean geometric MIC, Vancomycin Resistant Strains” value in assay [1] is 4.8 µg/mL. Further, the MIC in assay [2] turned out to be 0.5 µg/mL; in assay [3] it was 1 µg/mL; in assay [4] it was 0.25 µg/mL; in assay [5] it was 2 µg/mL; in assay [6], 16 µg/mL; in assay [7], 16 µg/mL. Further, the MIC is 16 µg/mL against Entercoccus faecium 276; 64 µg/mL in [8]; 32 µg/mL in assay [9]; 32 µg/mL in assay [10]; 16 µg/mL in assay [11]; 4 µg/mL against Entercoccus faecium 2041. Further, the MIC in assay [12] was 16 µg/mL; against Escherichia coli EC14, > 64 µg/mL; in assay [13], 16 µg/mL; in assay [14], 16 µg/mL; in assay [15] it was 8 µg/mL; in assay [16] it was > 64 µg/mL. Moreover, the MIC with Entercoccus faecium 180 was 0.5 µg/mL; in assay [17], 0.125 µg/mL; in [19], 32 µg/mL; in assay [20], 32 µg/mL. The “mean geometric MIC, Vancomycin Sensitive Strains” value in [18] amounted to 3 µg/mL.

As for `CC(C)CC(C(=O)NC1C(=O)NC(CC(N)=O)C(=O)NC2C(=O)NC3C(=O)NC(C(=O)NC(C(=O)O)c4cc(O)cc(O)c4-c4cc3ccc4O)C(OC3CC(C)(N)C(O)C(C)O3)c3ccc(c(Cl)c3)Oc3cc2cc(c3OC2OC(CO)C(O)C(O)C2OC2CC(C)(NCc3cccnc3)C(O)C(C)O2)Oc2ccc(cc2Cl)C1O)N(C)Cc1cccnc1` (stereo not drawn) [Compound 280], the “mean geometric MIC, Vancomycin Resistant Strains” value in [1] is > 128 µg/mL. Besides, the MIC amounted to 0.25 µg/mL (≈ 0.141 µM) in [2]; 0.5 µg/mL (≈ 0.282 µM) in assay [3]; 0.125 µg/mL (≈ 0.0704 µM) in assay [4]; 2 µg/mL (≈ 1.13 µM) in [5]; 1 µg/mL (≈ 0.563 µM) in assay [6]; 0.5 µg/mL (≈ 0.282 µM) in assay [7]. In addition, the MIC was 0.5 µg/mL (≈ 0.282 µM) in the assay with Entercoccus faecium 276; 2 µg/mL (≈ 1.13 µM) in assay [8]; 2 µg/mL (≈ 1.13 µM) in [9]; 1 µg/mL (≈ 0.563 µM) in assay [10]; 8 µg/mL (≈ 4.51 µM) in assay [11]; 1 µg/mL (≈ 0.563 µM) in the assay with Entercoccus faecium 2041. Moreover, the MIC is > 64 µg/mL in [12]; > 64 µg/mL in the assay on Escherichia coli EC14; 32 µg/mL (≈ 18 µM) in assay [13]; 32 µg/mL (≈ 18 µM) in assay [14]; 8 µg/mL (≈ 4.51 µM) in assay [15]; > 64 µg/mL in [16]. Also, the MIC with Entercoccus faecium 180 was 32 µg/mL (≈ 18 µM); in [17], 0.125 µg/mL (≈ 0.0704 µM); in [19], 0.5 µg/mL (≈ 0.282 µM); in assay [20] it was 2 µg/mL (≈ 1.13 µM). Besides, the “mean geometric MIC, Vancomycin Sensitive Strains” value in assay [18] was determined as 7 µg/mL.

For the origin of these results see patent publication US5840684A, “Glycopeptide antibiotic derivatives” (Eli Lilly and Company, priority 1995, dated 1998).
